Experimental data: patent publication US20110071124A1, “Compounds that Inhibit Production of sAPPB and AB and Uses Thereof” (The Trustees of Columbia University in the City of New York, priority 2008, published 2011)
Where two headings read alike, the source gives them in different places.

Legend:
[1] = tested on: sAPPβ (BACE1 cleavage of SEAP-APPwt) in SY5Y-BACEGFP-SEAPAPPwt cells; test: cell-based BACE1 assay (sAPPβ modified ELISA)
Experimental: FIG. 1. An sAPPβ assay utilized to identify inhibitors of BACE1. The assay utilizes SY5Y cells stably overexpressing BACE-GFP and SEAP-APPwt. Cells are incubated with a candidate compound for 6 hours prior to harvesting media. BACE1-mediated cleavage of APP results in the release of sAPPβ into the media. α-secretase, a competing enzyme that is non-amyloidogenic, also cleaves APP to release […]. Using an sAPPβ-specific antibody (sβwt), SEAP-sAPPβ is specifically captured in a modified ELISA assay. Detection is achieved by addition of the fluorescent alkaline phosphatase substrate, 4-methylumbelliferyl phosphate (4-MUP).
FIG. 13. […] Compounds were tested in SY5Y-BACEGFP-SEAPAPPwt cells using the cell-based BACE1 assay. Select compounds were also investigated for Aβ-lowering effect using a commercial Aβ ELISA kit (BioSource). All compounds were tested at 8 concentrations (30, 10, 3, 1, 0.3, 0.1, 0.03, and 0.01 μM), and data points were analyzed with Origin software and fitted using a logistic model for IC50 determination.
As described in the Examples below, and depicted in FIG. 1, an sAPPβ ELISA assay may comprise cells, for example, SY5Y cells, transfected with a BACE1 reporter construct, such as a GFP-tagged BACE1 (BACE-GFP), and a wild type APP reporter construct, such as a secreted alkaline phosphatase (SEAP)-tagged wild type APP (SEAP-APPwt). BACE1 cleavage of the reporter-tagged APP (e.g. SEAP-APPwt) may result in secretion into the media of SEAP-tagged sAPPβ, which may be collected and specifically captured using an sAPPβ cleavage site-specific antibody (e.g. stβwt). Following washing, a substrate may be used, for example, the fluorescent alkaline phosphatase substrate 4-methylumbelliferyl phosphate (4-MUP), to detect the captured SEAP-sAPPβ.
A cell-based modified ELISA assay for measuring sAPPβ, the secreted ectodomain of β-amyloid precursor protein (APP) following β-secretase (BACE1) cleavage, was used to identify a class of compounds that interfered with the first step of sAPPβ generation. This assay has been described in International Application PCT/US2007/015938 (Published as International Publication No. WO 08/008463), which is herein incorporated in its entirety for all purposes.
The SY5Y-BACEGFP-SEAPAPPwt cell based assay was developed to discover novel small molecule modulators of BACE1 activity. SY5Y cells were stably transfected with GFP-tagged BACE1 (BACE-GFP) and secreted alkaline phosphatase (SEAP)-tagged wildtype APP (SEAP-APPwt). BACE1 cleavage of SEAP-APPwt results in secretion into the media of SEAP-tagged sAPPβ, which is collected and specifically captured using an sAPP0 cleavage site-specific antibody (sβwt). After washing, the fluorescent alkaline phosphatase substrate 4-methylumbelliferyl phosphate (4-MUP) is used to detect the captured SEAP-sAPPβ (FIG. 1).
The 15 LDDN compounds selected based on their 3-point dose-response profile were tested at 12 concentrations (ranging from 0.1 nM to 30 μM) in the cell-based BACE1 assay. The assay was conducted in 96-well format to maximize the Z′ factor. Compounds were characterized in duplicate cell plates, each containing 12 doses of compound in triplicate. Cell viability was measured at 6 and 24 hours using Promega's Cell Titer-Glo kit according to the manufacturer's protocol. The dose-response curves for sAPPβ reduction were plotted using Origin software and fitted using a logistic model for IC50 determination.
27 structural analogs of LDN-0057228 were synthesized and tested using the cell-based BACE1 assay in SY5Y-BACEGFP-SEAPAPPwt cells (FIG. 13). 4 analogs, in addition to the parent compound, were also assessed for Aβ40 lowering activity using a commercial Aβ kit (BioSource). Because LDN-0057228 resembles CNS monoamine transporter inhibitors, this analog series was given the designation “CNS.” LDN-0057228 gave an unexpectedly low potency (IC50˜20 μM for both sAPPβ and Aβ40 reduction) compared to the ˜7 μM potency obtained using the same compound in FIG. 8.

[2] = tested on: Aβ40 in Tg2576 primary cortical neurons; test: Aβ40 ELISA in Tg2576 primary cortical neurons; assay type: cell-based, mouse; conditions: 24 hours, normalized to total protein
Experimental: FIG. 17A-B. LDN-0057228 and CNS-2 reduce Aβ40 and sAPPβ in Tg2576 primary neurons. Primary cortical neurons were cultured from P0 APPsw transgenic pups (Tg2576). DIV-14 neurons were treated for 24 hours with LDN-0057228 or CNS-2 at the indicated concentrations. Data from two independent experiments were pooled. A) Media was collected for Aβ40 ELISA. Raw Aβ40 values were normalized to total protein to control for variations in plating density or any cytotoxicity resulting from the compounds. B) sAPPβ in the media was immunoprecipitated with sβsw antibody and visualized on Western blot with LN27.
Culturing primary neurons from Tg2576 pups offers the advantage of equal APP expression, but suffers the drawback of lower yield since only half the pups contains the transgene. Furthermore, because neurons from each pup has to be plated separately, plating density and neuronal survivability may vary from mouse to mouse. Thus, total protein was used to normalize the data.
CNS-2 and LDN-0057228 were evaluated in the Tg2576 pup system (FIG. 17). Primary cortical neurons were harvested from P0 Tg2576 pups. Each pup yielded 3 wells on a 12-well plate at a plating density of 0.8×10^5 cells per well. After genotyping, neurons from each transgenic pup (APPsw +/−) were treated with DMSO, LDN-0057228 (20 μM), or CNS-2 (5 μM) at DIV-14 for 24 hours. […]

[3] = SAR study, 8 concentrations (30-0.01 μM), SY5Y-BACEGFP-SEAPAPPwt cells, read-out: IC50(sAPPβ)

| SMILES | IC50 ([1]; 12 concentrations 0.1 nM to 30 μM, 96-well format (FIG. 8), read-out: cell-based IC50 (sAPPβ), 12-point dose-response) [µM] | IC50 [1, 3] [µM] | reduction in Aβ40 ([2]; 20 μM) [%] | reduction in Aβ40 ([2]; 5 μM) [%] |
| --- | --- | --- | --- | --- |
| Fc1ccc(C(OCCN2CCC[C@H]2CNCCc2ccccc2)c2ccc(F)cc2)cc1 [LDN-0057228] | ~7 | ~20 | 65 | – |
| O=C(CCc1ccccc1)NC[C@@H]1CCCN1CCOC(c1ccc(F)cc1)c1ccc(F)cc1 [CNS-2] | – | 8.9 | – | 60 |
